# Test results taken from ChEMBL document CHEMBL5653598, “In vivo antitumor activity of NVP-AEW541-A novel, potent, and selective inhibitor of the IGF-IR kinase” (Cancer Cell, 2004).
# pIC50: −log10 of the molar value. Activity calls are given as the source filed them. The calls are words filed in the database; no cut-off is given here.
# Legend:
# [1] = biological target: T1, Mast/stem cell growth factor receptor Kit (Homo sapiens, UniProt P10721); assay: Inhibition of c-Kit (unknown origin) in human GIST882 cells assessed as inhibition of autophosphorylation of c-Kit incubated for 90 mins in presence of anti-CD117 antibody by ELISA analysis; format: cell-based
# T1 sequence (P10721 whole entry): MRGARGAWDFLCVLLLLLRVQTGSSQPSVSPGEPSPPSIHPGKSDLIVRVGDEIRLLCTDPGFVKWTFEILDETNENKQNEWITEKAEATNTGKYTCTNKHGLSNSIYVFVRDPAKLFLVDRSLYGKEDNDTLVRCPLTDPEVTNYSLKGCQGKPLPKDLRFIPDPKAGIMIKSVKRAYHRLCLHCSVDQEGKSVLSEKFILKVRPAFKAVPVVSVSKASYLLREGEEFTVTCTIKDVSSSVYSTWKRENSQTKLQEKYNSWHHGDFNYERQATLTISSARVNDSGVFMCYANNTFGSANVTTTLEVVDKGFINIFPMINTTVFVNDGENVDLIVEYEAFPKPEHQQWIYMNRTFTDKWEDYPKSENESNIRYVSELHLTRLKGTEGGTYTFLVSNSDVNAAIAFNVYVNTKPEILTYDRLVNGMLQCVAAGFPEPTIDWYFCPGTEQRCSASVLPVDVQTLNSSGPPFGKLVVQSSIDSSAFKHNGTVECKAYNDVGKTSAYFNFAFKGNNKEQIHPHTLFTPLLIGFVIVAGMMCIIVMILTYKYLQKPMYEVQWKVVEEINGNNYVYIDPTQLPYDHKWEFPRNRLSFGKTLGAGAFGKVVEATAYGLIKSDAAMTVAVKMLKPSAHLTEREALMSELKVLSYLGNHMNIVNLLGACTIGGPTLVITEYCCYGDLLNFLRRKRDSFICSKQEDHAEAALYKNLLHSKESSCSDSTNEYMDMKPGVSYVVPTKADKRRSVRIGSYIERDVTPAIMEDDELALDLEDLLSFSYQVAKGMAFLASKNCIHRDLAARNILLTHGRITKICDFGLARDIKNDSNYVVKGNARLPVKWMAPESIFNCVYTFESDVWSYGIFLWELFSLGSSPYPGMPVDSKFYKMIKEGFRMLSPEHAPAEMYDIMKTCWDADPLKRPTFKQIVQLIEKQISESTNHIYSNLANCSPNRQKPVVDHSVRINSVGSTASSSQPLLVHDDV
# NWT-21 [2] = assay: Antitumor activity against mouse NWT-21 cells xenografted in Hsd athymic nude mouse assessed as plasma insulin level at 50 mg/kg, po bid measured after 1 day; format: functional
# NWT-21 [3] = assay: Antitumor activity against mouse NWT-21 cells xenografted in Hsd athymic nude mouse assessed as inhibition of tumor growth at 50 mg/kg, po bid administered for 7 weeks relative to control; format: functional; conditions: NWT-21, 1176 h
# [4] = biological target: T2, Epidermal growth factor receptor (Homo sapiens, UniProt P00533); assay: Inhibition of HER-1 in human A-431 cells assessed as inhibition of autophosphorylation of HER-1 incubated for 90 mins followed by EGF stimulation measured after 10 mins in presence of anti-EGFR Ab5 by ELISA analysis; format: cell-based
# T2 sequence (P00533 whole entry): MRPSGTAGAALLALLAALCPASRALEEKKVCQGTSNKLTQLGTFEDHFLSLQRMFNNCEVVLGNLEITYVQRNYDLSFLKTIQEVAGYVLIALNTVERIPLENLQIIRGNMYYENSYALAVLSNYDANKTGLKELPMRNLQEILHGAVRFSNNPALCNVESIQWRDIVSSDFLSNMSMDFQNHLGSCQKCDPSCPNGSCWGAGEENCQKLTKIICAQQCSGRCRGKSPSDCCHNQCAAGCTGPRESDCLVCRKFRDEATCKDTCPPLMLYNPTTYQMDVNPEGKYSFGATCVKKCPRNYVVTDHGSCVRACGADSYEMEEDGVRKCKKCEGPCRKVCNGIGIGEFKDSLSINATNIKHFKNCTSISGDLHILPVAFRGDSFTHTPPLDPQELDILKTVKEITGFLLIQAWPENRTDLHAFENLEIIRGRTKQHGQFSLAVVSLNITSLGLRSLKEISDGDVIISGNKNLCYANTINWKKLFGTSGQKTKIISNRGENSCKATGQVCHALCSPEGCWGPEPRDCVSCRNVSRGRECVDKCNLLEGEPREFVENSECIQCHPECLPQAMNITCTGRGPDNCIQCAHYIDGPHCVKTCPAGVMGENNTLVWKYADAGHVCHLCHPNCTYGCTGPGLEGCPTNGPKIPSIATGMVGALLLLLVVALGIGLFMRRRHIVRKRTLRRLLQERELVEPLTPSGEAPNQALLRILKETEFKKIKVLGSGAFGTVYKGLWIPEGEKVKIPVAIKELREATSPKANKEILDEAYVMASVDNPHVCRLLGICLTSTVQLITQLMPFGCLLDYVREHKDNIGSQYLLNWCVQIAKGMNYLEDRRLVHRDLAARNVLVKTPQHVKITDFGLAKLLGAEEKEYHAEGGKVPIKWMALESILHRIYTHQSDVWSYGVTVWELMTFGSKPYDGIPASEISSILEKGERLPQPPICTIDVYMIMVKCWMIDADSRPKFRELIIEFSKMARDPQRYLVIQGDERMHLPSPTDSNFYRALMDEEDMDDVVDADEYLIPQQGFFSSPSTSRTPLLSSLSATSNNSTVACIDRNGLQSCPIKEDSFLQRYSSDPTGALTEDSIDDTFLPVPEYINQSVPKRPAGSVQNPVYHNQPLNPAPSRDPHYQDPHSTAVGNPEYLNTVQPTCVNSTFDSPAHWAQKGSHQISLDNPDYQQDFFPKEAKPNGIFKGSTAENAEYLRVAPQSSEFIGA
# Mus musculus [5] = species: Mus musculus; conditions: Harlan, dose 50.0 mg/kg, route po, time 1.0 hrs
# [6] = biological target: Receptor tyrosine-protein kinase erbB-2 (Homo sapiens, UniProt P04626); assay: Inhibition of GST tagged human HER-2 expressed in baculovirus at pH 7.5 measured after 15 mins in presence of gamma-[33P]-ATP by scintillation counter analysis
# [7] = biological target: RAC-alpha serine/threonine-protein kinase (Homo sapiens, UniProt P31749); assay: Inhibition of human PKB expressed in baculovirus at pH 7.2 measured after 30 mins in presence of gamma-[33P]-ATP by scintillation counter analysis
# [8] = Inhibition of starfish Cdk1/cycB expressed in baculovirus at pH 8.0 measured after 30 mins in presence of gamma-[33P]-ATP by scintillation counter analysis; set-up: species or system Asteroidea
# Angiopoietin-1 receptor = Angiopoietin-1 receptor (Homo sapiens, UniProt Q02763); assay: Inhibition of GST tagged Tek (unknown origin) expressed in baculovirus at pH 7.6 measured after 10 to 30 mins in presence of gamma-[33P]-ATP by scintillation counter analysis
# NWT-21 [9] = conditions: Mus musculus, dose 50.0 mg/kg, route po, time 1.0 hrs
# [10] = biological target: Tyrosine-protein kinase ABL1 (Homo sapiens, UniProt P00519); assay: Inhibition of GST tagged c-Abl (unknown origin) expressed in baculovirus infected Sf9 cells at pH 7.5 measured after 10 mins in presence of gamma-[33P]-ATP by scintillation counter analysis
# NWT-21 [11] = conditions: Mus musculus, dose 50.0 mg/kg, route po, time 1.0 hrs; remark: listed apart in the source
# NWT-21 [12] = assay: Antitumor activity against mouse NWT-21 cells xenografted in Hsd athymic nude mouse assessed as plasma glucose level at 50 mg/kg, po bid measured after 10 days; format: functional; conditions: time 10 day
# NWT-21 [13] = assay: Antitumor activity against mouse NWT-21 cells xenografted in Hsd athymic nude mouse assessed as plasma glucose level at 50 mg/kg, po bid measured after 1 day; format: functional
# NWT-21 [14] = assay: Antitumor activity against mouse NWT-21 cells xenografted in Hsd athymic nude mouse assessed as inhibition of tumor growth at 20 mg/kg, po bid administered for 7 weeks relative to control; format: functional; conditions: NWT-21, po, 1176 h
# NWT-21 [15] = assay: Antitumor activity against mouse NWT-21 cells xenografted in Hsd athymic nude mouse assessed as plasma insulin level at 50 mg/kg, po bid measured after 10 day; format: functional
# [16] = biological target: T1, Mast/stem cell growth factor receptor Kit; assay: Inhibition of GST tagged c-Kit (unknown origin) expressed in baculovirus at pH 7.6 measured after 10 to 30 mins in presence of gamma-[33P]-ATP by scintillation counter analysis
# NWT-21 [17] = assay: Antitumor activity against mouse NWT-21 cells xenografted in Hsd athymic nude mouse assessed as inhibition of tumor growth at 30 mg/kg, po bid administered for 7 weeks relative to control; format: functional; conditions: NWT-21, 1176 h, read-out: GI
# [18] = biological target: Hepatocyte growth factor receptor (Homo sapiens, UniProt P08581); assay: Inhibition of GST tagged c-Met (unknown origin) expressed in baculovirus at pH 7.6 measured after 10 to 30 mins in presence of gamma-[33P]-ATP by scintillation counter analysis
# [19] = biological target: T2, Epidermal growth factor receptor; assay: Inhibition of GST tagged human HER-1 expressed in baculovirus at pH 7.5 measured after 15 mins in presence of gamma-[33P]-ATP by scintillation counter analysis
# Insulin receptor [20] = biological target: T3, Insulin receptor (Homo sapiens, UniProt P06213); assay: Inhibition of GST tagged human Ins-R expressed in baculovirus at pH 7.6 measured after 20 mins in presence of gamma-[33P]-ATP by scintillation counter analysis
# T3 sequence (P06213 28-758 limits assumed): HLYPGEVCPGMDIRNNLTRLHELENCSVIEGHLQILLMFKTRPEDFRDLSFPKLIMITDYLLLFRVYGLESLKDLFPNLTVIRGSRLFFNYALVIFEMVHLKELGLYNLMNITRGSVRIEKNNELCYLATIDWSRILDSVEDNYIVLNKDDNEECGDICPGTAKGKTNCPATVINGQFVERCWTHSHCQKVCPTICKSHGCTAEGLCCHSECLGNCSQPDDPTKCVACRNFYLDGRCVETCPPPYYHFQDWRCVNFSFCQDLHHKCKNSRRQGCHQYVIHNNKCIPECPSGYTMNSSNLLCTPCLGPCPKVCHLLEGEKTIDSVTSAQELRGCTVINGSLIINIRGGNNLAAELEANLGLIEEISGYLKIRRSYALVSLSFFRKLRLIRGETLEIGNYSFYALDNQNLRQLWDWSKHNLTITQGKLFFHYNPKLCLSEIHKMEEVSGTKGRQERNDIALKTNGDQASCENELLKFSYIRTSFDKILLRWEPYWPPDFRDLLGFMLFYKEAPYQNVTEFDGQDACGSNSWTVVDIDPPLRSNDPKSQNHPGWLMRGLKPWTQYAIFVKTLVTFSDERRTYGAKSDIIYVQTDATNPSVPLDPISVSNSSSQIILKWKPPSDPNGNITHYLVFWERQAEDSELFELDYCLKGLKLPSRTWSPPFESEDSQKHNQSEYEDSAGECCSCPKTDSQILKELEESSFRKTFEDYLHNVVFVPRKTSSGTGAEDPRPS
# T3 sequence (P06213 763-1382 limits assumed): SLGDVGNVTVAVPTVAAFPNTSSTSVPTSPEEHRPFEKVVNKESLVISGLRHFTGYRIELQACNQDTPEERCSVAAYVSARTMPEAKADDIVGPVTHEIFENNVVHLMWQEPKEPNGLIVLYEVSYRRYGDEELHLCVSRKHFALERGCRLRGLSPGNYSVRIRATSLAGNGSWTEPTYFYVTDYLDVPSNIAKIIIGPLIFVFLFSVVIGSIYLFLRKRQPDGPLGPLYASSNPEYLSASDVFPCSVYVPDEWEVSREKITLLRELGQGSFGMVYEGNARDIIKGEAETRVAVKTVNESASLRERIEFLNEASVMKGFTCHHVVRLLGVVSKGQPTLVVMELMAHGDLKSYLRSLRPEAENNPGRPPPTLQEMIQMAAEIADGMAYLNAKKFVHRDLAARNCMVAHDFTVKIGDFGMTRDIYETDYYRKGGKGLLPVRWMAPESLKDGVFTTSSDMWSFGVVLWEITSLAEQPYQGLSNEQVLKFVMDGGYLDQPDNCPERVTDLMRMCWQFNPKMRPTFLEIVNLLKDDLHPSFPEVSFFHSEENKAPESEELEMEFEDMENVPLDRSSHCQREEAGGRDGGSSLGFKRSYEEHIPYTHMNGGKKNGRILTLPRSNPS
# [21] = biological target: Platelet-derived growth factor receptor beta (Homo sapiens, UniProt P09619); assay: Inhibition of GST tagged PDGFR-beta (unknown origin) expressed in baculovirus at pH 7.6 measured after 10 to 30 mins in presence of gamma-[33P]-ATP by scintillation counter analysis
# Sequence of Platelet-derived growth factor receptor beta (P09619 whole entry): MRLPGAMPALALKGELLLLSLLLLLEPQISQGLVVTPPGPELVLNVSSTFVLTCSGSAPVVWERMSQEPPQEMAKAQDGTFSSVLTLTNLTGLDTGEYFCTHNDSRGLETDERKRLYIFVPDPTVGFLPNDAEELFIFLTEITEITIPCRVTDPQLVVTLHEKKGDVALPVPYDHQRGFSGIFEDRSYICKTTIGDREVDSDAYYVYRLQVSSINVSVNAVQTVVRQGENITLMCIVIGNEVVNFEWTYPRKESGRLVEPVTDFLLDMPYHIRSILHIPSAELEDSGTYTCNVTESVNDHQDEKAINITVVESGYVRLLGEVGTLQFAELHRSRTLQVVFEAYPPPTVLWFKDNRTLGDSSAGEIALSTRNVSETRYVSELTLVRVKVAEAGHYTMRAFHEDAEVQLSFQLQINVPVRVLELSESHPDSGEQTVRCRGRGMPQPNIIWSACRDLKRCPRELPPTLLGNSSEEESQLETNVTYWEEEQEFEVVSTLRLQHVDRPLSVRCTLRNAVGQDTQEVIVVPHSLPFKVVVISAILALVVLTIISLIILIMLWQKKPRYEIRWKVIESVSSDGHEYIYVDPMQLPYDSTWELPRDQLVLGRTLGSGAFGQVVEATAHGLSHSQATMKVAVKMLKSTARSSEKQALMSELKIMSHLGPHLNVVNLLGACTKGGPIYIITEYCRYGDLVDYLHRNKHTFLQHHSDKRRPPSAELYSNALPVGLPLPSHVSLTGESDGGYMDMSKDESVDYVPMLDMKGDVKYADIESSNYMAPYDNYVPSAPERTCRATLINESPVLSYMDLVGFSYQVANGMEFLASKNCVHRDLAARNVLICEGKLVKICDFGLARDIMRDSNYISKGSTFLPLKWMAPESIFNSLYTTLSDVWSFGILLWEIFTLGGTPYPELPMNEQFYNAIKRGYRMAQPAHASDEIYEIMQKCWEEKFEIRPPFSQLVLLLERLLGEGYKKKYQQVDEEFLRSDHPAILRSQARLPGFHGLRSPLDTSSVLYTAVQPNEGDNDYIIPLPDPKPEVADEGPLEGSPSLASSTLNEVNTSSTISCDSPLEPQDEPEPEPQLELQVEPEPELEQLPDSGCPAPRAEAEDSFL
# NWT-21 [22] = conditions: Mus musculus, dose 50.0 mg/kg, route po, time 1.0 hrs; remark: listed apart in the source
# [23] = biological target: Vascular endothelial growth factor receptor 2 (Homo sapiens, UniProt P35968); assay: Inhibition of GST tagged KDR (unknown origin) expressed in baculovirus at pH 7.6 measured after 10 to 30 mins in presence of gamma-[33P]-ATP by scintillation counter analysis
# [24] = biological target: Vascular endothelial growth factor receptor 1 (Homo sapiens, UniProt P17948); assay: Inhibition of GST tagged Flt-1 (unknown origin) expressed in baculovirus at pH 7.6 measured after 10 to 30 mins in presence of gamma-[33P]-ATP by scintillation counter analysis
# [25] = biological target: Receptor tyrosine-protein kinase erbB-4 (Homo sapiens, UniProt Q15303); assay: Inhibition of GST tagged human HER-4 expressed in baculovirus at pH 7.5 measured after 15 mins in presence of gamma-[33P]-ATP by scintillation counter analysis
# [26] = biological target: Fibroblast growth factor receptor 1 (Homo sapiens, UniProt P11362); assay: Inhibition of GST tagged FGFR-1 (unknown origin) expressed in baculovirus at pH 7.6 measured after 10 to 30 mins in presence of gamma-[33P]-ATP by scintillation counter analysis
# [27] = biological target: Proto-oncogene tyrosine-protein kinase Src (Gallus gallus, UniProt P00523); assay: Inhibition of GST tagged chicken c-Src expressed in baculovirus at pH 7.5 measured after 10 mins in presence of gamma-[33P]-ATP by scintillation counter analysis
# [28] = biological target: RAF proto-oncogene serine/threonine-protein kinase (Homo sapiens, UniProt P04049); assay: Inhibition of GST-tagged c-Raf-1 (unknown origin) expressed in baculovirus infected in Sf21 cells at pH 7.5 measured after 30 mins in presence of gamma-[33P]-ATP by scintillation counter analysis
# [29] = biological target: T4, Receptor-type tyrosine-protein kinase FLT3 (Homo sapiens, UniProt P36888); assay: Inhibition of GST tagged human Flt-3 expressed in baculovirus at pH 7.6 measured after 15 mins in presence of gamma-[33P]-ATP by scintillation counter analysis
# T4 sequence (P36888 whole entry): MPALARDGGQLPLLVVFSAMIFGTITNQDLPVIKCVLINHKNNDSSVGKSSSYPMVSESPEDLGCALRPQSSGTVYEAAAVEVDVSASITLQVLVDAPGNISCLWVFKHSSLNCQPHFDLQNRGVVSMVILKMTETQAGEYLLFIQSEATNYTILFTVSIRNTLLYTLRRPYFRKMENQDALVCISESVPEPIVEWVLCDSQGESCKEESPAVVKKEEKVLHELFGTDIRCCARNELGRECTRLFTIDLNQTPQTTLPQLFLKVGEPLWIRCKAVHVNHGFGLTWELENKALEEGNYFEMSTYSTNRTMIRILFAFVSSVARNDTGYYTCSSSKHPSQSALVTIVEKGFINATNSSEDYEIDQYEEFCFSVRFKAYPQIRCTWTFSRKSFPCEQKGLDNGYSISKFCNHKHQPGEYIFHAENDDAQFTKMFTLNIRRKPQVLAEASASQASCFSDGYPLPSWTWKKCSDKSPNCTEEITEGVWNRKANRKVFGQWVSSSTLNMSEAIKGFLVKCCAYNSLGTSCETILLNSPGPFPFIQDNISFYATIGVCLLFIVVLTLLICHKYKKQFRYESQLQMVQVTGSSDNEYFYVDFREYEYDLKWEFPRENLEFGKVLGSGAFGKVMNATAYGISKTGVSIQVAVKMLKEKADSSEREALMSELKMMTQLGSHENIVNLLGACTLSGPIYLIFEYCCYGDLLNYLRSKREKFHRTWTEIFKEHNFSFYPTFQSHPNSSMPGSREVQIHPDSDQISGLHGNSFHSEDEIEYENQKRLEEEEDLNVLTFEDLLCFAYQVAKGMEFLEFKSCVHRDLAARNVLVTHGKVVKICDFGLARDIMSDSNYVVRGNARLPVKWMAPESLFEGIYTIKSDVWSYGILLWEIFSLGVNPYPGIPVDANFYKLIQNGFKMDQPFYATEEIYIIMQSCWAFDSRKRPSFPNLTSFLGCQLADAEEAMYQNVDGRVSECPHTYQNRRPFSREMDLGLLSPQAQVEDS
# [30] = Inhibition of PDGFR (unknown origin) in mouse BALB/3T3 clone A31 cells assessed as inhibition of autophosphorylation of PDGFR incubated for 90 mins followed by PDGF BB stimulation measured after 10 mins in presence of anti-PDGF-R Receptor Type A/B antibody by ELISA analysis; format: cell-based; conditions: Homo sapiens
# [31] = Inhibition of rabbit PKA expressed in baculovirus at pH 7.0 measured after 20 mins in presence of gamma-[33P]-ATP by scintillation counter analysis; set-up: species or system Oryctolagus cuniculus
# NWT-21 [32] = conditions: Mus musculus, dose 50.0 mg/kg, route po, time 1.0 hrs; remark: listed apart in the source
# Insulin receptor [33] = biological target: T3, Insulin receptor; assay: Inhibition of Ins-R in A14 [Human melanoma] cells assessed as inhibition of autophosphorylation of Ins-R incubated for 90 mins followed by insulin stimulation measured after 10 mins by ELISA analysis; format: cell-based
# [34] = Toxicity in Hsd athymic nude mouse xenografted with NWT-21 cells assessed as body weight at 20 to 50 mg/kg, po bid administered for 7 weeks; format: organism-based; conditions: in vivo, 1176 h, dose 20-50 mg/kg
# Mus musculus [35] = species: Mus musculus; conditions: Harlan, dose 50.0 mg/kg, route po, time 1.0 hrs; remark: listed apart in the source
# Mus musculus [36] = species: Mus musculus; conditions: Harlan, dose 50.0 mg/kg, route po, time 1.0 hrs; remark: listed apart in the source
# [37] = biological target: Vascular endothelial growth factor receptor 3 (Homo sapiens, UniProt P35916); assay: Inhibition of GST tagged human Flt-4 expressed in baculovirus at pH 7.6 measured after 15 mins in presence of gamma-[33P]-ATP by scintillation counter analysis
smiles,measurement,setting,value
Nc1ncnc2c1c(-c1cccc(OCc3ccccc3)c1)cn2[C@H]1C[C@@H](CN2CCC2)C1,pIC50,[1],< 5.30
same,Activity,NWT-21 [2],14.4 uU/ml
same,T/C at 50 mg/kg,NWT-21 [3],14%
same,pIC50,[4],< 5.00
same,inhibition,Mus musculus [5],Active
same,pIC50,[6],5.39
same,pIC50,[7],< 5.00
same,pIC50,[8],< 5.00
same,pIC50,Angiopoietin-1 receptor,6.28
same,inhibition,NWT-21 [9],Active
same,pIC50,[10],< 5.00
same,inhibition,NWT-21 [11],Active
same,Activity,NWT-21 [12],204.4 mg/dL
same,Activity,NWT-21 [13],197.4 mg/dL
same,T/C at 20 mg/kg,NWT-21 [14],32%
same,Activity,NWT-21 [15],28.9 uU/ml
same,pIC50,[16],5.48
same,inhibition in vivo at 30 mg/kg,NWT-21 [17],28%
same,pIC50,[18],5.42
same,pIC50,[19],5.24
same,pIC50,Insulin receptor [20],6.85
same,pIC50,[21],5.70
same,inhibition,NWT-21 [22],Active
same,pIC50,[23],5.64
same,pIC50,[24],6.22
same,pIC50,[25],5.85
same,pIC50,[26],5.39
same,pIC50,[27],5.62
same,pIC50,[28],< 5.00
same,pIC50,[29],6.38
same,pIC50,[30],< 5.00
same,pIC50,[31],< 5.00
same,inhibition,NWT-21 [32],Active
same,pIC50,Insulin receptor [33],5.64
same,Activity,[34],Non-Toxic
same,inhibition,Mus musculus [35],Active
same,inhibition,Mus musculus [36],Active
same,pIC50,[37],5.62
